Experimental data: PubChem BioAssay (NCI)
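At the GI50, growth is halved. TGI: total growth inhibition.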

Assays:
Assay in all cases: inhibition of tumour cell growth, NCI panel, 384-well format
A498 renal = test system: A498 renal
A549 NSCLC = test system: A549 NSCLC
ACHN renal = test system: ACHN renal
BT-549 breast = test system: BT-549 breast
CAKI-1 renal = test system: CAKI-1 renal
COLO 205 colon = test system: COLO 205 colon
DU-145 prostate = test system: DU-145 prostate
EKVX NSCLC = test system: EKVX NSCLC
HCT-116 colon = test system: HCT-116 colon
HCT-15 colon = test system: HCT-15 colon
HL-60(TB) leukemia = test system: HL-60(TB) leukemia
HOP-62 NSCLC = test system: HOP-62 NSCLC
HOP-92 NSCLC = test system: HOP-92 NSCLC
HS 578T breast = test system: HS 578T breast
HT29 colon = test system: HT29 colon
IGROV1 ovarian = test system: IGROV1 ovarian
KM12 colon = test system: KM12 colon
LOX IMVI melanoma = test system: LOX IMVI melanoma
MALME-3M melanoma = test system: MALME-3M melanoma
MCF7 breast = test system: MCF7 breast
MDA-MB-231 breast = test system: MDA-MB-231 breast
MDA-MB-435 melanoma = test system: MDA-MB-435 melanoma
MDA-MB-468 breast = test system: MDA-MB-468 breast
MOLT-4 leukemia = test system: MOLT-4 leukemia
NCI-H226 lung = test system: NCI-H226 lung
NCI-H23 lung = test system: NCI-H23 lung
NCI-H322M lung = test system: NCI-H322M lung
NCI-H460 NSCLC = test system: NCI-H460 NSCLC
NCI-H522 lung = test system: NCI-H522 lung
NCI/ADR-RES ovarian = test system: NCI/ADR-RES ovarian
OVCAR-3 ovarian = test system: OVCAR-3 ovarian
OVCAR-4 ovarian = test system: OVCAR-4 ovarian
OVCAR-5 ovarian = test system: OVCAR-5 ovarian
OVCAR-8 ovarian = test system: OVCAR-8 ovarian
PC-3 prostate = test system: PC-3 prostate
RPMI-8226 leukemia = test system: RPMI-8226 leukemia
RXF 393 renal = test system: RXF 393 renal
SF-268 CNS = test system: SF-268 CNS
SF-295 CNS = test system: SF-295 CNS
SF-539 CNS = test system: SF-539 CNS
SK-MEL-28 melanoma = test system: SK-MEL-28 melanoma
SK-MEL-5 melanoma = test system: SK-MEL-5 melanoma
SK-OV-3 ovarian = test system: SK-OV-3 ovarian
SN12C renal = test system: SN12C renal
SNB-19 CNS = test system: SNB-19 CNS
SNB-75 CNS = test system: SNB-75 CNS
SR leukemia = test system: SR leukemia
T-47D breast = test system: T-47D breast
TK-10 renal = test system: TK-10 renal
U251 glioblastoma = test system: U251 glioblastoma
UACC-257 melanoma = test system: UACC-257 melanoma
UACC-62 melanoma = test system: UACC-62 melanoma
786-0 renal = test system: 786-0 renal
CCRF-CEM leukemia = test system: CCRF-CEM leukemia
HCC-2998 colon = test system: HCC-2998 colon
K-562 leukemia = test system: K-562 leukemia
M14 melanoma = test system: M14 melanoma
SW-620 colon = test system: SW-620 colon
UO-31 renal = test system: UO-31 renal

Cn1ncnc1C1c2n[nH]c(=O)c3cc(F)cc(c23)NC1c1ccc(F)cc1 (stereo not drawn)
GI50 (A498 renal): 24.8 µM
TGI (A498 renal): > 100 µM
GI50 (A549 NSCLC): > 100 µM
TGI (A549 NSCLC): > 100 µM
GI50 (ACHN renal): 43.6 µM
TGI (ACHN renal): > 100 µM
GI50 (BT-549 breast): 4.68 µM
TGI (BT-549 breast): > 100 µM
GI50 (CAKI-1 renal): > 100 µM
TGI (CAKI-1 renal): > 100 µM
GI50 (COLO 205 colon): 1.85 µM
TGI (COLO 205 colon): > 100 µM
GI50 (DU-145 prostate): 2.2 µM
TGI (DU-145 prostate): 14.4 µM
GI50 (EKVX NSCLC): > 100 µM
TGI (EKVX NSCLC): > 100 µM
GI50 (HCT-116 colon): 0.857 µM
TGI (HCT-116 colon): > 100 µM
GI50 (HCT-15 colon): 32.5 µM
TGI (HCT-15 colon): > 100 µM
GI50 (HL-60(TB) leukemia): 1.2 µM
TGI (HL-60(TB) leukemia): 2.56 µM
GI50 (HOP-62 NSCLC): 0.278 µM
TGI (HOP-62 NSCLC): 4.14 µM
GI50 (HOP-92 NSCLC): > 100 µM
TGI (HOP-92 NSCLC): > 100 µM
GI50 (HS 578T breast): > 100 µM
TGI (HS 578T breast): > 100 µM
GI50 (HT29 colon): > 100 µM
TGI (HT29 colon): > 100 µM
GI50 (IGROV1 ovarian): > 100 µM
TGI (IGROV1 ovarian): > 100 µM
GI50 (KM12 colon): > 100 µM
TGI (KM12 colon): > 100 µM
GI50 (LOX IMVI melanoma): 2.43 µM
TGI (LOX IMVI melanoma): > 100 µM
GI50 (MALME-3M melanoma): > 100 µM
TGI (MALME-3M melanoma): > 100 µM
GI50 (MCF7 breast): 3.63 µM
TGI (MCF7 breast): > 100 µM
GI50 (MDA-MB-231 breast): > 100 µM
TGI (MDA-MB-231 breast): > 100 µM
GI50 (MDA-MB-435 melanoma): > 100 µM
TGI (MDA-MB-435 melanoma): > 100 µM
GI50 (MDA-MB-468 breast): 0.677 µM
TGI (MDA-MB-468 breast): 4.68 µM
GI50 (MOLT-4 leukemia): 0.234 µM
TGI (MOLT-4 leukemia): 1.06 µM
GI50 (NCI-H226 lung): > 100 µM
TGI (NCI-H226 lung): > 100 µM
GI50 (NCI-H23 lung): 1.89 µM
TGI (NCI-H23 lung): > 100 µM
GI50 (NCI-H322M lung): > 100 µM
TGI (NCI-H322M lung): > 100 µM
GI50 (NCI-H460 NSCLC): 0.0191 µM
TGI (NCI-H460 NSCLC): 1.56 µM
GI50 (NCI-H522 lung): > 100 µM
TGI (NCI-H522 lung): > 100 µM
GI50 (NCI/ADR-RES ovarian): 8.17 µM
TGI (NCI/ADR-RES ovarian): > 100 µM
GI50 (OVCAR-3 ovarian): 82.7 µM
TGI (OVCAR-3 ovarian): > 100 µM
GI50 (OVCAR-4 ovarian): 19 µM
TGI (OVCAR-4 ovarian): > 100 µM
GI50 (OVCAR-5 ovarian): > 100 µM
TGI (OVCAR-5 ovarian): > 100 µM
GI50 (OVCAR-8 ovarian): 2.15 µM
TGI (OVCAR-8 ovarian): > 100 µM
GI50 (PC-3 prostate): > 100 µM
TGI (PC-3 prostate): > 100 µM
GI50 (RPMI-8226 leukemia): 1.65 µM
TGI (RPMI-8226 leukemia): > 100 µM
GI50 (RXF 393 renal): > 100 µM
TGI (RXF 393 renal): > 100 µM
GI50 (SF-268 CNS): 1.73 µM
TGI (SF-268 CNS): > 100 µM
GI50 (SF-295 CNS): 0.383 µM
TGI (SF-295 CNS): 8.07 µM
GI50 (SF-539 CNS): 1.81 µM
TGI (SF-539 CNS): > 100 µM
GI50 (SK-MEL-28 melanoma): > 100 µM
TGI (SK-MEL-28 melanoma): > 100 µM
GI50 (SK-MEL-5 melanoma): > 100 µM
TGI (SK-MEL-5 melanoma): > 100 µM
GI50 (SK-OV-3 ovarian): 2.3 µM
TGI (SK-OV-3 ovarian): > 100 µM
GI50 (SN12C renal): 1.53 µM
TGI (SN12C renal): > 100 µM
GI50 (SNB-19 CNS): 5.2 µM
TGI (SNB-19 CNS): > 100 µM
GI50 (SNB-75 CNS): 5.52 µM
TGI (SNB-75 CNS): > 100 µM
TGI (SR leukemia): 0.0215 µM
GI50 (T-47D breast): > 100 µM
TGI (T-47D breast): > 100 µM
GI50 (TK-10 renal): > 100 µM
TGI (TK-10 renal): > 100 µM
GI50 (U251 glioblastoma): 3.46 µM
TGI (U251 glioblastoma): > 100 µM
GI50 (UACC-257 melanoma): > 100 µM
TGI (UACC-257 melanoma): > 100 µM
GI50 (UACC-62 melanoma): > 100 µM
TGI (UACC-62 melanoma): > 100 µM

Nc1nc(Cl)nc2c1ncn2[C@@H]1O[C@H](COS(N)(=O)=O)[C@@H](O)[C@H]1O
GI50 ([…]-0 renal): 0.0173 µM
TGI (786-0 renal): 0.0341 µM
GI50 (A498 renal): 0.0198 µM
TGI (A498 renal): 0.0392 µM
GI50 (A549 NSCLC): 0.0156 µM
TGI (A549 NSCLC): 0.044 µM
GI50 (ACHN renal): 0.0243 µM
TGI (ACHN renal): 0.0575 µM
GI50 (CAKI-1 renal): 0.0157 µM
TGI (CAKI-1 renal): 0.0422 µM
TGI (CCRF-CEM leukemia): 0.0105 µM
GI50 (COLO 205 colon): 0.0182 µM
TGI (COLO 205 colon): 0.038 µM
GI50 (EKVX NSCLC): 0.0223 µM
TGI (EKVX NSCLC): 0.0495 µM
GI50 (HCC-2998 colon): 0.0146 µM
TGI (HCC-2998 colon): 0.0289 µM
TGI (HCT-116 colon): 0.0409 µM
GI50 (HCT-15 colon): 0.0207 µM
TGI (HCT-15 colon): 0.0451 µM
GI50 (HOP-92 NSCLC): 0.01 µM
TGI (HOP-92 NSCLC): 0.025 µM
GI50 (HS 578T breast): 0.0151 µM
TGI (HS 578T breast): 0.0294 µM
GI50 (HT29 colon): 0.0184 µM
TGI (HT29 colon): 0.0333 µM
GI50 (IGROV1 ovarian): 0.0205 µM
TGI (IGROV1 ovarian): 0.0547 µM
TGI (K-562 leukemia): 0.014 µM
TGI (KM12 colon): 0.0151 µM
GI50 (LOX IMVI melanoma): 0.0173 µM
TGI (LOX IMVI melanoma): 0.0316 µM
GI50 (M14 melanoma): 0.0166 µM
TGI (M14 melanoma): 0.0304 µM
GI50 (MALME-3M melanoma): 0.0111 µM
TGI (MALME-3M melanoma): 0.0233 µM
TGI (MCF7 breast): 0.0697 µM
TGI (MDA-MB-435 melanoma): 0.0167 µM
GI50 (MDA-MB-468 breast): 0.0133 µM
TGI (MDA-MB-468 breast): 0.0265 µM
GI50 (NCI-H23 lung): 0.0109 µM
TGI (NCI-H23 lung): 0.024 µM
TGI (NCI-H322M lung): 0.0274 µM
TGI (NCI-H460 NSCLC): 0.032 µM
GI50 (OVCAR-3 ovarian): 0.0209 µM
TGI (OVCAR-3 ovarian): 0.0415 µM
GI50 (PC-3 prostate): 0.0123 µM
TGI (PC-3 prostate): 0.0336 µM
TGI (RPMI-8226 leukemia): 0.0118 µM
GI50 (RXF 393 renal): 0.0165 µM
TGI (RXF 393 renal): 0.0319 µM
TGI (SF-268 CNS): 0.0114 µM
GI50 (SF-295 CNS): 0.0214 µM
TGI (SF-295 CNS): 0.0483 µM
GI50 (SF-539 CNS): 0.015 µM
TGI (SF-539 CNS): 0.0286 µM
GI50 (SK-MEL-28 melanoma): 0.0138 µM
TGI (SK-MEL-28 melanoma): 0.0271 µM
GI50 (SK-MEL-5 melanoma): 0.0159 µM
TGI (SK-MEL-5 melanoma): 0.0296 µM
GI50 (SK-OV-3 ovarian): 0.0124 µM
TGI (SK-OV-3 ovarian): 0.0441 µM
TGI (SNB-19 CNS): 0.0136 µM
TGI (SNB-75 CNS): 0.0199 µM
TGI (SW-620 colon): 0.0428 µM
TGI (T-47D breast): 0.0507 µM
TGI (TK-10 renal): 0.036 µM
GI50 (U251 glioblastoma): 0.0143 µM
TGI (U251 glioblastoma): 0.0342 µM
GI50 (UACC-257 melanoma): 0.0201 µM
TGI (UACC-257 melanoma): 0.0365 µM
GI50 (UACC-62 melanoma): 0.0164 µM
TGI (UACC-62 melanoma): 0.0303 µM
GI50 (UO-31 renal): 0.0194 µM
TGI (UO-31 renal): 0.0358 µM
